Among the data in publication PMC12136037, “Type II kinase inhibitors that target Parkinson’s disease–associated LRRK2” (Science Advances, 2025) are dTm values, retold here.

Holding throughout (assay): DSF 100 kinase selectivity screen;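 further: compound tested at 20 µM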
Holding throughout (type): binding

Assay [1] has as its target T1, ~100 representative kinases (Homo sapiens, UniProt P21802).
T1 construct: Recombinant protein kinase domains with a concentration of 2 μM
The following applies: protein FGFR2; average of three replicates. In a few lines: (§1)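 Each kinase domain, at 2 μM, is mixed with 20 μM test compound and SYPRO Orange in Hepes (20 mM, pH 7.5) with 500 mM NaCl. Temperature is then raised at 3°C/min and fluorescence-monitored unfolding yields the melting temperature change, ΔTm in degrees Celsius.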

For assay [2], the target named is T2, ~100 representative kinases (Homo sapiens, UniProt Q14680).
T2 construct: Recombinant protein kinase domains with a concentration of 2 μM
As to conditions: protein MELK; average of three replicates. In a few lines:
as §1

Assay [3] has as its target T3, ~100 representative kinases (Homo sapiens, UniProt Q86V86).
T3 construct: Recombinant protein kinase domains with a concentration of 2 μM
As to conditions: protein PIM3; average of three replicates. An outline of the steps:
as §1

The target in assay [4] is T4, ~100 representative kinases (Homo sapiens, UniProt O14976).
T4 construct: Recombinant protein kinase domains with a concentration of 2 μM
T4 sequence (O14976 1-1311): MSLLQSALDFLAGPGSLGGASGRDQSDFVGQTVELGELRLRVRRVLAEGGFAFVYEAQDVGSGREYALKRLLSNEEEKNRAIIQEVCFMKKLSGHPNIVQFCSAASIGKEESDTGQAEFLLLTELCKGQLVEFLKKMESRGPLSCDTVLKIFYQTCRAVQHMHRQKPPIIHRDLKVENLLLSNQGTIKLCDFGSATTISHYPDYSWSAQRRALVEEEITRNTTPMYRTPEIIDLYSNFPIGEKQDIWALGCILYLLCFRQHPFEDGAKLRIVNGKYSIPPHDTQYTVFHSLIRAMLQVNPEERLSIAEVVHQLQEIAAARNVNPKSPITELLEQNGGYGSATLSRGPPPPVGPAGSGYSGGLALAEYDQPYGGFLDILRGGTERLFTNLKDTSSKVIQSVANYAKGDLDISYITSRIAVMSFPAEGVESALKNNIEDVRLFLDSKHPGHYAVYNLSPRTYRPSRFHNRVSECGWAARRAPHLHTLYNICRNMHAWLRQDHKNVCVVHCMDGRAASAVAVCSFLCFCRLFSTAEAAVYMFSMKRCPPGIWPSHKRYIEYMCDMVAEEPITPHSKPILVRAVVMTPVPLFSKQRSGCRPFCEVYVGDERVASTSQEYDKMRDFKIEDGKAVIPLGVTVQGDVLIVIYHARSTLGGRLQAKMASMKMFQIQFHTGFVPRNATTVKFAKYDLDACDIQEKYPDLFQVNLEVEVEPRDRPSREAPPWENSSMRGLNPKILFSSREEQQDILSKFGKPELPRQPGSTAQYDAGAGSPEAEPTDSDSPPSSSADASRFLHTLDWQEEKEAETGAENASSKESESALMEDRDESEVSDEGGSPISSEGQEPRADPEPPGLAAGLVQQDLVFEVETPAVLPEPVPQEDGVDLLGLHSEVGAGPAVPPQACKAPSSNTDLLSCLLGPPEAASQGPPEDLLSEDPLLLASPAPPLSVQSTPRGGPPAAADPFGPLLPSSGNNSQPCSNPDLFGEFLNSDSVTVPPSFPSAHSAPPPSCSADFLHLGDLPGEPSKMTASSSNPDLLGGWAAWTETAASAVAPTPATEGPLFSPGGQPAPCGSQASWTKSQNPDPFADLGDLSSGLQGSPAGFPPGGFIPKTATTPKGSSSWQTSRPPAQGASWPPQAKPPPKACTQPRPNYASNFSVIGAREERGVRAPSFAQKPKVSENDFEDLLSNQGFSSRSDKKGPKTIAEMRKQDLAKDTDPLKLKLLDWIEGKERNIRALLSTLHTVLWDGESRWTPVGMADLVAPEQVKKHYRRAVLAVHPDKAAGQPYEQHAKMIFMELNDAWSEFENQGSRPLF
The following applies: protein GAK; average of three replicates. An outline of the steps:
as §1

The target of assay [5] is T5, ~100 representative kinases (Homo sapiens, UniProt Q09013).
T5 construct: Recombinant protein kinase domains with a concentration of 2 μM
T5 sequence (Q09013 1-629): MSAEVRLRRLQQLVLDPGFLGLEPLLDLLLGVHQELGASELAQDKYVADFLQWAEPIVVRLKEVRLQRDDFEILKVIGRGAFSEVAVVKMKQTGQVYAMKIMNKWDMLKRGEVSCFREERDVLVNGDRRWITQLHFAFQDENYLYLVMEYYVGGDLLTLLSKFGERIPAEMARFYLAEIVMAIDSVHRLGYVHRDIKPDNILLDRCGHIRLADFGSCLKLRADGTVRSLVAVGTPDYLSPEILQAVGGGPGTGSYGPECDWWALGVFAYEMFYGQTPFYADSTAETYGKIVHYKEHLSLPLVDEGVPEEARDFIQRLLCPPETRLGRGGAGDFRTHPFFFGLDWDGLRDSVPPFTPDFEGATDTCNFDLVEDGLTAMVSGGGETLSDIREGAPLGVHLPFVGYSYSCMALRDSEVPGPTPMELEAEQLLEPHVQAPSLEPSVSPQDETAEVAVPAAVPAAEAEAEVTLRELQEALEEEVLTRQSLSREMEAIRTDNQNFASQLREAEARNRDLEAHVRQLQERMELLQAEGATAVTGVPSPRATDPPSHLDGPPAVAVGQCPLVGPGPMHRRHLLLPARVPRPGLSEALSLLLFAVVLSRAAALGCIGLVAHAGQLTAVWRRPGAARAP
As to conditions: Protein DMPK1; average of three replicates. An outline of the steps:
as §1

The target of assay [6] is T6, ~100 representative kinases (Homo sapiens, UniProt P53779).
T6 construct: Recombinant protein kinase domains with a concentration of 2 μM
As to conditions: protein MAPK10; average of three replicates. An outline of the steps:
as §1

Assay [7] addresses T7, ~100 representative kinases (Homo sapiens, UniProt P00519).
T7 construct: Recombinant protein kinase domains with a concentration of 2 μM
An outline of the steps: as §1

Assay [8] has as its target T8, ~100 representative kinases (Homo sapiens, UniProt O94804).
T8 construct: Recombinant protein kinase domains with a concentration of 2 μM
The following applies: Protein STK10; DSF; average of three replicates. An outline of the steps:
as §1

Assay [9] concerns the target T9, ~100 representative kinases (Homo sapiens, UniProt O43293).
T9 construct: Recombinant protein kinase domains with a concentration of 2 μM
The following applies: Protein DAPK3; average of three replicates. In a few lines:
as §1

Assay [10] addresses T10, ~100 representative kinases (Homo sapiens, UniProt Q13153).
T10 construct: Recombinant protein kinase domains with a concentration of 2 μM
As to conditions: protein PAK1; average of three replicates. In a few lines:
as §1

Assay [11] deals with T11, ~100 representative kinases (Homo sapiens, UniProt P34947).
T11 construct: Recombinant protein kinase domains with a concentration of 2 μM
The following applies: protein GPRK5; average of three replicates. In a few lines: as §1

The target of assay [12] is T12, ~100 representative kinases (Homo sapiens, UniProt Q2M2I8).
T12 construct: Recombinant protein kinase domains with a concentration of 2 μM
The following applies: Protein AAK1; average of three replicates. An outline of the steps:
as §1

[13] abbreviates: Protein ABL1, average of three replicates.

The structures appear in SMILES notation. Like-named read-outs stand apart in the source and are kept apart here.

T1 sequence (P21802 22-821): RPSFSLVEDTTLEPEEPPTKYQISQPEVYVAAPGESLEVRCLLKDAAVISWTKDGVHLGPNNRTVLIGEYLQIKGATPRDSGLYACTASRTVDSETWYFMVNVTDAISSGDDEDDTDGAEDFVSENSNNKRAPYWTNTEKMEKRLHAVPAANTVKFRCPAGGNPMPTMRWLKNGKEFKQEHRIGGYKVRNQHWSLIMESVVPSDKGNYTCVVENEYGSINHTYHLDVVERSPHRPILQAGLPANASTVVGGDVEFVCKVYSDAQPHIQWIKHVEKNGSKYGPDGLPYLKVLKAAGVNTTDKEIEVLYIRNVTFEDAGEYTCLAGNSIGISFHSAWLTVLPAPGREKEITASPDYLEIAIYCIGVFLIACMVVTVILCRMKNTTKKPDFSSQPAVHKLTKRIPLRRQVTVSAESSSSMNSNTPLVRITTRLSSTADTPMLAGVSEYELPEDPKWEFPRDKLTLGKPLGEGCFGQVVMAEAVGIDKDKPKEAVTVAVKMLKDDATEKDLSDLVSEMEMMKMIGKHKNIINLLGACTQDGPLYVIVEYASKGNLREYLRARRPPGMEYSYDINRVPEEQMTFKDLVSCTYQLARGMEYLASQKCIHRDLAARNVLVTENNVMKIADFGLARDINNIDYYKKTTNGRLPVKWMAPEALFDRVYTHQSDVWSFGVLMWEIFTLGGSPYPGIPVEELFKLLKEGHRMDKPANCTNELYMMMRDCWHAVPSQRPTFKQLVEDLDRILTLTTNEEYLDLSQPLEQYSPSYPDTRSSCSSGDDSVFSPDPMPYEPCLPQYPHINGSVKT
T2 sequence (Q14680 whole entry, the tested form may be a part): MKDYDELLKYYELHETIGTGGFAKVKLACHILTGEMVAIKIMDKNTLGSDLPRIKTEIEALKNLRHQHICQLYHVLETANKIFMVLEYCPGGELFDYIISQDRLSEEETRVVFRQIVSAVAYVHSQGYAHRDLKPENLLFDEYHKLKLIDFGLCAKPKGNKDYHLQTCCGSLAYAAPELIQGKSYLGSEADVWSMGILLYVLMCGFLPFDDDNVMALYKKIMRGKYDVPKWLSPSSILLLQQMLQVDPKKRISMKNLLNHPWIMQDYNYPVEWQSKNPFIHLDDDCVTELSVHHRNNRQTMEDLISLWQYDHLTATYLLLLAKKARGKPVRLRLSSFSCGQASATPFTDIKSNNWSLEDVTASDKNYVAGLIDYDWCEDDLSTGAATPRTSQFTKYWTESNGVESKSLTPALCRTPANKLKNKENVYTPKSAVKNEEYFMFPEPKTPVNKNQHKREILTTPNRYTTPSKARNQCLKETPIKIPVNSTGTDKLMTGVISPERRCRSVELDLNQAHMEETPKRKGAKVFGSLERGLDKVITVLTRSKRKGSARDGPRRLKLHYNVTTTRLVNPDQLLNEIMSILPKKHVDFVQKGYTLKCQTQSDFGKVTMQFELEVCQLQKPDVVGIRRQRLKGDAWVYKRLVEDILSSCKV
T12 sequence (Q2M2I8 whole entry, the tested form may be a part): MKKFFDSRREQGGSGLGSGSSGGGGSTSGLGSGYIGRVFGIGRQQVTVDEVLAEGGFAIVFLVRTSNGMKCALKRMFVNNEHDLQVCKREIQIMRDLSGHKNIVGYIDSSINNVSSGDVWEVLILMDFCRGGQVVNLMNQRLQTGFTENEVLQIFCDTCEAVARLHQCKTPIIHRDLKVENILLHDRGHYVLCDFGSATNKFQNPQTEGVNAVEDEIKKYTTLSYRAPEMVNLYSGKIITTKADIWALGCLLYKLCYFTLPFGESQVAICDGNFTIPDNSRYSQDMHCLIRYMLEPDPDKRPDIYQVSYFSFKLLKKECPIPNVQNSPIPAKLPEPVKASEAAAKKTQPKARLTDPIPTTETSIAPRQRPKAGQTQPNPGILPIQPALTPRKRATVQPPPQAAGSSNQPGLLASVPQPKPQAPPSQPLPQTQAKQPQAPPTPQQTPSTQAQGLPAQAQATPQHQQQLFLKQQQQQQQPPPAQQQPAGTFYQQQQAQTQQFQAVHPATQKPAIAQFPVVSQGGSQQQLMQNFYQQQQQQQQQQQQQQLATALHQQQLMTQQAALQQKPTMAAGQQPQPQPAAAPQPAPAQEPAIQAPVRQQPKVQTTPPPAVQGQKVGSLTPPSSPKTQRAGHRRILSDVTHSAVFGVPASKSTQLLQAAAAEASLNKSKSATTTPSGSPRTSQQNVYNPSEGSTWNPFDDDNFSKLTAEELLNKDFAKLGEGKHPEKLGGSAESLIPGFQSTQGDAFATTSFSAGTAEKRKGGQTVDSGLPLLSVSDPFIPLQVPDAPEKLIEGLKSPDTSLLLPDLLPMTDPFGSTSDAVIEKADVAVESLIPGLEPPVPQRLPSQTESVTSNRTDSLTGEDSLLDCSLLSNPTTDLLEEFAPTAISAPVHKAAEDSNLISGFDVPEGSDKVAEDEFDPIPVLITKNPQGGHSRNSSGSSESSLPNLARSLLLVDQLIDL
T7 sequence (P00519 whole entry, the tested form may be a part): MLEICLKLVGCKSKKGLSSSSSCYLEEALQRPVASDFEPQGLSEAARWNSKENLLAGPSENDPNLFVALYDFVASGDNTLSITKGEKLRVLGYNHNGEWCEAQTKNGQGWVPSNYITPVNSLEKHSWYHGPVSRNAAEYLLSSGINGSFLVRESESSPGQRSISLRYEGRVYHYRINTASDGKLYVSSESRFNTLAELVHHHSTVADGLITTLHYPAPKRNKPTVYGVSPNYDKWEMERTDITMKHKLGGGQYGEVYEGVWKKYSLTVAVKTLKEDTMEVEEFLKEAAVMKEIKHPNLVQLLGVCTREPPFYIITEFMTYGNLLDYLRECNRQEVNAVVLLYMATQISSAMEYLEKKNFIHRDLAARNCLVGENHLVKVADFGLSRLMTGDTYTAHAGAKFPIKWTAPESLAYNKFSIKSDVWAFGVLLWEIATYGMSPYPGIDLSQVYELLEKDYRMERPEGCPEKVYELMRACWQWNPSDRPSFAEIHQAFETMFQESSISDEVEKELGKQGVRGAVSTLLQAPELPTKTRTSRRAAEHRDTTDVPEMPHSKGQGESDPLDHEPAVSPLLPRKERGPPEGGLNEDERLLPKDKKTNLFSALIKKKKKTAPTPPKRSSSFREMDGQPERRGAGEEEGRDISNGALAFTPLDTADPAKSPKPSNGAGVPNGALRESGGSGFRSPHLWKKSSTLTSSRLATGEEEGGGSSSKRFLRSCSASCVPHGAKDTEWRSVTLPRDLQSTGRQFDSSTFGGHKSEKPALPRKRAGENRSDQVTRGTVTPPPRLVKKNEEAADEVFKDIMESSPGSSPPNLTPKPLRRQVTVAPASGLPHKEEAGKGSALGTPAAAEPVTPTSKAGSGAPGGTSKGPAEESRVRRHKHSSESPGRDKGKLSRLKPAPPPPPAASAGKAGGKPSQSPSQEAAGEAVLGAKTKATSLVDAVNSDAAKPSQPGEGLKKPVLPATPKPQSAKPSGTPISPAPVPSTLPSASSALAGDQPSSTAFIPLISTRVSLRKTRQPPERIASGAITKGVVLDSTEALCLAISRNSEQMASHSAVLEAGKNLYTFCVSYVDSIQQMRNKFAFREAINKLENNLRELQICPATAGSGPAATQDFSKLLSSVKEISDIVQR
T6 sequence (P53779 whole entry, the tested form may be a part): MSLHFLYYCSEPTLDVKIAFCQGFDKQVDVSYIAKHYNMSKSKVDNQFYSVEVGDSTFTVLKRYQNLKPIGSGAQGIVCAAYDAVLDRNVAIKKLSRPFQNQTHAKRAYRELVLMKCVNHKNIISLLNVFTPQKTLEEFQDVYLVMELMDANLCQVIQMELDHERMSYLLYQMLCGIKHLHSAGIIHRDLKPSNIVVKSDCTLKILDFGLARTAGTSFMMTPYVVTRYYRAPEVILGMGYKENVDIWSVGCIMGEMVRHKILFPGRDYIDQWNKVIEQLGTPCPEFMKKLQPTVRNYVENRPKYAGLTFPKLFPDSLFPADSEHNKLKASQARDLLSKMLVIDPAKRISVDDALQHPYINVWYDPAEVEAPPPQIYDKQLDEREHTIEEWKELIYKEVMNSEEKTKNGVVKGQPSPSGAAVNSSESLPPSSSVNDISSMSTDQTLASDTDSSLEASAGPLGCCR
T8 sequence (O94804 whole entry, the tested form may be a part): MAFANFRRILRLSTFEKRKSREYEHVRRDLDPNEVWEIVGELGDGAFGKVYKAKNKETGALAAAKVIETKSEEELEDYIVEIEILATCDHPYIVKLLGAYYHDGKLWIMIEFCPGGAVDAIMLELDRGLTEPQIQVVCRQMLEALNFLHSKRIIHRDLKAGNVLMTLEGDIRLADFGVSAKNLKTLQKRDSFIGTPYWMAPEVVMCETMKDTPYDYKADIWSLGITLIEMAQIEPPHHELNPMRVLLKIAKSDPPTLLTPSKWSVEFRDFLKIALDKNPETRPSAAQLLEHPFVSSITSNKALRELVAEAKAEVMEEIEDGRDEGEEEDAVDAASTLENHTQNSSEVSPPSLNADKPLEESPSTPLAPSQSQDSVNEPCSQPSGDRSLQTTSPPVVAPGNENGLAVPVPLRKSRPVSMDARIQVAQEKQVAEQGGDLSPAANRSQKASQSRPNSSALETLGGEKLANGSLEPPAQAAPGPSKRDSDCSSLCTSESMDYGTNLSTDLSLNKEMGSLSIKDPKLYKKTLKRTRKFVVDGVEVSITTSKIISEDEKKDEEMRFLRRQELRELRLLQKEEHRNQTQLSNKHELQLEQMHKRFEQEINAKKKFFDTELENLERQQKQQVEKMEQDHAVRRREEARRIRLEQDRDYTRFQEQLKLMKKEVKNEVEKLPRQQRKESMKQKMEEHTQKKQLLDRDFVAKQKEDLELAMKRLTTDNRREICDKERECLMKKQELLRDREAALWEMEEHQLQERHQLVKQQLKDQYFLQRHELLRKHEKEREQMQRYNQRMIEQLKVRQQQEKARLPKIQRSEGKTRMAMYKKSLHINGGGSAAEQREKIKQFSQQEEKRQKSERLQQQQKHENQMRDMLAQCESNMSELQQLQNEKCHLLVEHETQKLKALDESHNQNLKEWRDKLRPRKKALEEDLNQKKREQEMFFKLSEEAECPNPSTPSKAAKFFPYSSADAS

On to `O=C(Nc1cccc(-c2c[nH]c3ncnc(N4CCOCC4)c23)c1)C1(C(=O)Nc2ccc(F)c(Cl)c2)CC1` [Compound 18], for which the dTm is reported as 4.02 K in [1]; 13.04 K in assay [2]; 1.00 K in assay [3]; 1.28 K in assay [4]; -0.69 K in [5]; 3.57 K in [6]. Also, the dTm in [7] (setting [13]) was found to be 2.25 K; in assay [8], 15.34 K; in assay [9], 10.62 K; in [10] it was 5.39 K; in assay [11], 0.43 K; in [12], 4.45 K.

With `CCc1ccc(NC(=O)C2(C(=O)Nc3cccc(-c4c[nH]c5ncnc(N6CCOCC6)c45)c3)CC2)cc1` [Compound 15], the dTm in assay [1] is recorded as 2.28 K; in assay [2], 6.77 K; in assay [3] it was 1.24 K; in assay [4] it was 0.09 K; in assay [5], -1.02 K; in [6], -0.66 K. For the same compound, the dTm in assay [7] (setting [13]) is 1.94 K; in assay [8], 12.89 K; in assay [9], 3.77 K; in assay [10], 1.40 K; in assay [11] it was 1.27 K; in [12] it was 2.03 K.

With `CCNc1nc(Nc2cc(F)c(C(=O)N3CCOCC3)cc2OC)ncc1C(F)(F)F` [GNE-7915], the dTm in [1] worked out at 0.49 K; in [2] it was 2.44 K; in [3], 0.92 K; in assay [4] it was 0.77 K; in assay [5], 0.77 K; in assay [6] it was 0.33 K. For the same compound, the dTm was 0.74 K in [7] (setting [13]); -0.11 K in assay [8]; 1.72 K in assay [9]; -0.11 K in assay [10]; 0.32 K in assay [11]; 4.61 K in [12].

Consider `O=C(Nc1cccc(-c2c[nH]c3ncnc(N4CCOCC4)c23)c1)c1cccn(-c2ccc(F)cc2)c1=O` [Compound 4], for which the dTm in assay [1] is on record as 5.86 K; in [2] it was 12.90 K; in assay [3] it was 0.41 K; in assay [4] it was 0.0652 K; in assay [5], -0.68 K; in assay [6], 7.48 K. Besides, the dTm in assay [7] (setting [13]) was found to be 2.49 K; in assay [8], 11.47 K; in assay [9], 5.01 K; in assay [10], 4.33 K; in assay [11], 0.55 K; in [12], 1.95 K.

In the case of `Cc1ccc(C(=O)Nc2ccc(CN3CCN(C)CC3)c(C(F)(F)F)c2)cc1C#Cc1cnc2[nH]ncc2c1` [GZD-824, reference compound], the dTm in assay [1] is on record as 13.32 K; in assay [2], 5.45 K; in assay [3], 0.45 K; in assay [4], 11.23 K; in assay [5], 3.13 K; in assay [6], 2.46 K. Also, the dTm in assay [7] was 30.43 K; in [9], 0.50 K; in assay [10], 4.19 K; in assay [11], 0.29 K; in assay [12], 5.77 K.

In the case of `O=C(Nc1ccccc1)C1(C(=O)Nc2cccc(-c3c[nH]c4ncnc(N5CCOCC5)c34)c2)CC1` [Compound 12], the dTm is 2.56 K in [1]; 12.58 K in assay [2]; 0.88 K in assay [3]; 1.44 K in [4]; -0.21 K in [5]; 2.45 K in assay [6]. Moreover, the dTm in assay [7] (setting [13]) is 1.58 K; in assay [8] it was 11.85 K; in [9], 6.20 K; in [10], 1.90 K; in assay [11], 0.86 K; in assay [12], 3.79 K.

With `Cc1ccc(C(=O)Nc2ccc(CN3CCN(C)CC3)c(C(F)(F)F)c2)cc1C#Cc1c[nH]c2ncnc(N3CCOCC3)c12` [Compound 1], the dTm is listed as 4.16 K in assay [1]; 8.08 K in assay [2]; 2.19 K in [3]; 3.03 K in assay [4]; 0.98 K in [5]; 4.55 K in assay [6]. The dTm in assay [7] (setting [13]) is given as 7.59 K; in assay [8], 14.26 K; in [9], 0.53 K; in assay [10], 1.52 K; in [11], 0.19 K; in [12], 3.06 K.

For `CNC(=O)c1cc(Oc2ccc(NC(=O)Nc3cc(C(C)(C)C)nn3-c3ccc4ncccc4c3)c(F)c2)ccn1` [Rebastinib, reference compound], the dTm in [1] was 10.35 K; in assay [2], 0.63 K; in assay [3] it was 6.29 K; in [4], 4.99 K; in [5], -0.79 K; in [6] it was 3.02 K. Besides, the dTm is 16.27 K in [8]; 5.73 K in [9]; 1.98 K in [10]; 0.59 K in assay [11]; 0.20 K in assay [12].

As for `CN[C@@H]1C[C@H]2O[C@@](C)([C@@H]1OC)n1c3ccccc3c3c4c(c5c6ccccc6n2c5c31)C(=O)NC4` [Staurosporine], the dTm came out at 14.15 K in assay [2]; 16.71 K in assay [3]; 22.21 K in assay [8]; 7.21 K in assay [10]; 7.02 K in assay [11]; 12.42 K in assay [12].

As to `Cc1ccc(C(=O)Nc2ccc(CN3CCN(C)CC3)c(C(F)(F)F)c2)cc1C#Cc1cnc2cccnn12` [Ponatinib, reference compound], in [1], the dTm was 12.49 K.
